{"source": "ChEMBL document CHEMBL3390836", "about": "“Mannich- and LedererManasse-based analogues of the natural product S-(+)-curcuphenol as cancer proliferation and migration inhibitors” (Medchemcomm, 2012)", "format_in_all_cases": "functional", "key": {"[1]": {"test_system": "NCI-H23", "assay": "Cytotoxicity against human NCI-H23 cells assessed as cell growth at 10^-6 M after 48 hrs by SRB assay relative to control", "conditions": "NCI-H23, 48 h, read-out: Activity"}, "[2]": {"assay": "Cytotoxicity against human OVCAR3 cells assessed as cell growth at 10^-8 M after 48 hrs by SRB assay relative to control", "conditions": "OVCAR-3, 48 h, read-out: Activity"}, "[3]": {"test_system": "SNB-19", "assay": "Cytotoxicity against human SNB19 cells assessed as cell growth at 10^-4 M after 48 hrs by SRB assay relative to control", "conditions": "SNB-19, 48 h, read-out: Activity"}, "[4]": {"test_system": "SNB-19", "assay": "Cytotoxicity against human SNB19 cells assessed as cell growth at 10^-8 M after 48 hrs by SRB assay relative to control", "conditions": "SNB-19, 48 h, read-out: Activity"}, "[5]": {"assay": "Cytotoxicity against human SKOV3 cells assessed as cell growth at 10^-4 M after 48 hrs by SRB assay relative to control", "conditions": "SK-OV-3, 48 h, read-out: Activity"}, "[6]": {"test_system": "SK-MEL-5", "assay": "Cytotoxicity against human SK-MEL-5 cells after 48 hrs by SRB assay", "conditions": "SK-MEL-5, 48 h"}, "[7]": {"assay": "Cytotoxicity against human HCT116 cells after 48 hrs by SRB assay", "conditions": "HCT-116, 48 h"}, "[8]": {"test_system": "MOLT-4", "assay": "Cytotoxicity against human MOLT4 cells after 48 hrs by SRB assay", "conditions": "MOLT-4, 48 h"}, "[9]": {"test_system": "SK-MEL-28", "assay": "Cytotoxicity against human SK-MEL-28 cells assessed as cell growth at 10^-8 M after 48 hrs by SRB assay relative to control", "conditions": "SK-MEL-28, 48 h, read-out: Activity"}, "[10]": {"test_system": "786-0", "assay": "Cytotoxicity against human 786-0 cells assessed as cell growth at 10^-6 M after 48 hrs by SRB assay relative to control", "conditions": "786-0, 48 h, read-out: Activity"}, "[11]": {"test_system": "KM12", "assay": "Cytotoxicity against human KM12 cells after 48 hrs by SRB assay", "conditions": "KM12, 48 h"}, "[12]": {"test_system": "BT-549", "assay": "Cytotoxicity against human BT549 cells assessed as cell growth at 10^-7 M after 48 hrs by SRB assay relative to control", "conditions": "BT-549, 48 h, read-out: Activity"}, "[13]": {"test_system": "IGROV-1", "assay": "Cytotoxicity against human IGROV1 cells assessed as cell growth at 10^-6 M after 48 hrs by SRB assay relative to control", "conditions": "IGROV-1, 48 h, read-out: Activity"}, "[14]": {"test_system": "HOP-62", "assay": "Cytotoxicity against human HOP62 cells assessed as cell growth at 10^-6 M after 48 hrs by SRB assay relative to control", "conditions": "HOP-62, 48 h, read-out: Activity"}, "[15]": {"test_system": "KM12", "assay": "Cytotoxicity against human KM12 cells assessed as cell growth at 10^-6 M after 48 hrs by SRB assay relative to control", "conditions": "KM12, 48 h, read-out: Activity"}, "[16]": {"assay": "Cytotoxicity against human OVCAR4 cells assessed as cell growth at 10^-4 M after 48 hrs by SRB assay relative to control", "conditions": "OVCAR-4, 48 h, read-out: Activity"}, "[17]": {"test_system": "MDA-MB-435", "assay": "Cytotoxicity against human MDA-MB-435 cells assessed as cell growth at 10^-6 M after 48 hrs by SRB assay relative to control", "conditions": "MDA-MB-435, 48 h, read-out: Activity"}, "[18]": {"test_system": "LOX IMVI", "assay": "Cytotoxicity against human LOXIMVI cells assessed as cell growth at 10^-8 M after 48 hrs by SRB assay relative to control", "conditions": "read-out: Activity"}, "[19]": {"test_system": "SN12C", "assay": "Cytotoxicity against human SN12C cells assessed as cell growth at 10^-4 M after 48 hrs by SRB assay relative to control", "conditions": "read-out: Activity"}, "[20]": {"assay": "Cytotoxicity against human OVCAR3 cells assessed as cell growth at 10^-4 M after 48 hrs by SRB assay relative to control", "conditions": "OVCAR-3, 48 h, read-out: Activity"}, "[21]": {"assay": "Cytotoxicity against human OVCAR3 cells assessed as cell growth at 10^-7 M after 48 hrs by SRB assay relative to control", "conditions": "OVCAR-3, 48 h, read-out: Activity"}, "[22]": {"test_system": "K562", "assay": "Cytotoxicity against human K562 cells after 48 hrs by SRB assay", "conditions": "K562, 48 h"}, "[23]": {"test_system": "NCI-H322M", "assay": "Cytotoxicity against human NCI-H322M cells after 48 hrs by SRB assay"}, "[24]": {"test_system": "SF-295", "assay": "Cytotoxicity against human SF295 cells assessed as cell growth at 10^-7 M after 48 hrs by SRB assay relative to control", "conditions": "SF-295, 48 h, read-out: Activity"}, "[25]": {"test_system": "MDA-MB-468", "assay": "Cytotoxicity against human MDA-MB-468 cells assessed as cell growth at 10^-4 M after 48 hrs by SRB assay relative to control", "conditions": "MDA-MB-468, 48 h, read-out: Activity"}, "[26]": {"assay": "Cytotoxicity against human EKVX cells after 48 hrs by SRB assay"}, "[27]": {"test_system": "NCI-H460", "assay": "Cytotoxicity against human NCI-H460 cells after 48 hrs by SRB assay", "conditions": "NCI-H460, 48 h"}, "[28]": {"test_system": "SN12C", "assay": "Cytotoxicity against human SN12C cells assessed as cell growth at 10^-8 M after 48 hrs by SRB assay relative to control", "conditions": "read-out: Activity"}, "[29]": {"test_system": "SF-295", "assay": "Cytotoxicity against human SF295 cells assessed as cell growth at 10^-4 M after 48 hrs by SRB assay relative to control", "conditions": "SF-295, 48 h, read-out: Activity"}, "[30]": {"test_system": "CAKI-1", "assay": "Cytotoxicity against human Caki1 cells assessed as cell growth at 10^-4 M after 48 hrs by SRB assay relative to control", "conditions": "CAKI-1, 48 h, read-out: Activity"}, "[31]": {"test_system": "NCI-H23", "assay": "Cytotoxicity against human NCI-H23 cells after 48 hrs by SRB assay", "conditions": "NCI-H23, 48 h"}, "[32]": {"test_system": "NCI-H23", "assay": "Cytotoxicity against human NCI-H23 cells assessed as cell growth at 10^-7 M after 48 hrs by SRB assay relative to control", "conditions": "NCI-H23, 48 h, read-out: Activity"}, "[33]": {"test_system": "COLO 205", "assay": "Cytotoxicity against human COLO205 cells after 48 hrs by SRB assay", "conditions": "COLO 205, 48 h"}, "[34]": {"test_system": "MDA-MB-231", "assay": "Cytotoxicity against human MDA-MB-231 cells after 48 hrs by SRB assay", "conditions": "MDA-MB-231, 48 h"}, "[35]": {"test_system": "HCC 2998", "assay": "Cytotoxicity against human HCC2998 cells assessed as cell growth at 10^-4 M after 48 hrs by SRB assay relative to control", "conditions": "HCC 2998, 48 h, read-out: Activity"}, "[36]": {"test_system": "MCF7", "assay": "Cytotoxicity against human MCF7 cells assessed as cell growth at 10^-8 M after 48 hrs by SRB assay relative to control", "conditions": "MCF7, 48 h, read-out: Activity"}, "[37]": {"conditions": "read-out: LC50 (the source's name)"}}, "data": [{"smiles": "COc1ccc(CCN2COc3c([C@@H](C)CCC=C(C)C)ccc(C)c3C2)cc1OC", "values": [{"measurement": "growth at 1 µM", "setting": "[1]", "result": 104, "unit": "%"}, {"measurement": "growth at 0.01 µM", "setting": "[2]", "result": 95, "unit": "%"}, {"measurement": "growth at 100 µM", "setting": "[3]", "result": -33, "unit": "%"}, {"measurement": "growth at 0.01 µM", "setting": "[4]", "result": 99, "unit": "%"}, {"measurement": "growth at 100 µM", "setting": "[5]", "result": -60, "unit": "%"}, {"measurement": "GI50", "setting": "[6]", "result": 1.64, "unit": "µM"}, {"measurement": "LC50", "setting": "[6]", "result": 5.66, "unit": "µM"}, {"measurement": "TGI", "setting": "[6]", "result": 3.04, "unit": "µM"}, {"measurement": "GI50", "setting": "[7]", "result": 2.17, "unit": "µM"}, {"measurement": "TGI", "setting": "[7]", "result": 4.94, "unit": "µM"}, {"measurement": "CC50", "setting": "[7]; [37]", "result": 13.3, "unit": "µM"}, {"measurement": "GI50", "setting": "[8]", "result": 3.69, "unit": "µM"}, {"measurement": "LC50", "setting": "[8]", "result": "> 100", "unit": "µM"}, {"measurement": "TGI", "setting": "[8]", "result": "> 100", "unit": "µM"}, {"measurement": "growth at 0.01 µM", "setting": "[9]", "result": 106, "unit": "%"}, {"measurement": "growth at 1 µM", "setting": "[10]", "result": 96, "unit": "%"}, {"measurement": "GI50", "setting": "[11]", "result": 2.86, "unit": "µM"}, {"measurement": "TGI", "setting": "[11]", "result": 9.64, "unit": "µM"}, {"measurement": "CC50", "setting": "[11]; [37]", "result": 46.1, "unit": "µM"}, {"measurement": "growth at 0.1 µM", "setting": "[12]", "result": 91, "unit": "%"}, {"measurement": "growth at 1 µM", "setting": "[13]", "result": 53, "unit": "%"}, {"measurement": "growth at 1 µM", "setting": "[14]", "result": 97, "unit": "%"}, {"measurement": "growth at 1 µM", "setting": "[15]", "result": 93, "unit": "%"}, {"measurement": "growth at 100 µM", "setting": "[16]", "result": -45, "unit": "%"}, {"measurement": "growth at 1 µM", "setting": "[17]", "result": 96, "unit": "%"}, {"measurement": "growth at 0.01 µM", "setting": "[18]", "result": 87, "unit": "%"}, {"measurement": "growth at 100 µM", "setting": "[19]", "result": -100, "unit": "%"}, {"measurement": "growth at 100 µM", "setting": "[20]", "result": -94, "unit": "%"}, {"measurement": "growth at 0.1 µM", "setting": "[21]", "result": 91, "unit": "%"}, {"measurement": "GI50", "setting": "[22]", "result": 3.7, "unit": "µM"}, {"measurement": "TGI", "setting": "[22]", "result": 93.5, "unit": "µM"}, {"measurement": "CC50", "setting": "[22]; [37]", "result": "> 100", "unit": "µM"}, {"measurement": "GI50", "setting": "[23]", "result": 3.03, "unit": "µM"}, {"measurement": "LC50", "setting": "[23]", "result": 55.7, "unit": "µM"}, {"measurement": "TGI", "setting": "[23]", "result": 11.6, "unit": "µM"}, {"measurement": "growth at 0.1 µM", "setting": "[24]", "result": 92, "unit": "%"}, {"measurement": "growth at 100 µM", "setting": "[25]", "result": -92, "unit": "%"}, {"measurement": "GI50", "setting": "[26]", "result": 5.14, "unit": "µM"}, {"measurement": "LC50", "setting": "[26]", "result": "> 100", "unit": "µM"}, {"measurement": "TGI", "setting": "[26]", "result": 25.4, "unit": "µM"}, {"measurement": "GI50", "setting": "[27]", "result": 2.06, "unit": "µM"}, {"measurement": "TGI", "setting": "[27]", "result": 4.3, "unit": "µM"}, {"measurement": "CC50", "setting": "[27]; [37]", "result": 8.95, "unit": "µM"}, {"measurement": "growth at 0.01 µM", "setting": "[28]", "result": 86, "unit": "%"}, {"measurement": "growth at 100 µM", "setting": "[29]", "result": -87, "unit": "%"}, {"measurement": "growth at 100 µM", "setting": "[30]", "result": -86, "unit": "%"}, {"measurement": "GI50", "setting": "[31]", "result": 2.55, "unit": "µM"}, {"measurement": "LC50", "setting": "[31]", "result": 21.8, "unit": "µM"}, {"measurement": "TGI", "setting": "[31]", "result": 6.08, "unit": "µM"}, {"measurement": "growth at 0.1 µM", "setting": "[32]", "result": 107, "unit": "%"}, {"measurement": "GI50", "setting": "[33]", "result": 1.79, "unit": "µM"}, {"measurement": "TGI", "setting": "[33]", "result": 3.19, "unit": "µM"}, {"measurement": "CC50", "setting": "[33]; [37]", "result": 5.7, "unit": "µM"}, {"measurement": "GI50", "setting": "[34]", "result": 2.76, "unit": "µM"}, {"measurement": "LC50", "setting": "[34]", "result": 34.5, "unit": "µM"}, {"measurement": "TGI", "setting": "[34]", "result": 9.37, "unit": "µM"}, {"measurement": "growth at 100 µM", "setting": "[35]", "result": -100, "unit": "%"}, {"measurement": "growth at 0.01 µM", "setting": "[36]", "result": 91, "unit": "%"}]}]}
